Measured values as given in PubChem BioAssay AID179 (DTP/NCI, 2004).
“And” between values parts separate entries of the source, which are not always exact repeats. Identical values can stand only once. The source made the active and inactive calls.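 How the source made its calls: active means compounds giving half or more protection of infected cells from virus-caused growth loss, again on retest; inactive means the rest.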

Test system: CEM cells HIV-1 protection, formazan growth assay
Test: NCI AIDS Antiviral Assay
Conditions: for IC50: measured here: growth of uninfected CEM cells
How it was run: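 CEM (human) cells, HIV-1 infected vs uninfected, 5-point dosing, formazan growth read-out. Retest threshold 50% protection.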

SMILES | EC50 | IC50 | outcome
O=C(/C(=C/c1ccc(Cl)cc1)c1ccccc1)c1ccccc1 | > 8.51 µM | > 8.51 µM | –
CN(/N=C/c1ccc(Cl)c(Cl)c1)C1=NCCN1 | > 200 µM | 16.2 µM | –
O=C1N(Cl)C2(c3ccccc3)N(Cl)C(=O)N(Cl)C2(c2ccccc2)N1Cl (centres undefined) | > 200 µM | > 200 µM | –
CCOC(=O)C(NC(=O)c1ccccc1)(c1ccc(S(=O)(=O)Nc2onc(C)c2C)cc1)C(F)(F)F (centres undefined) | > 200 µM | > 200 µM | –
CCOC(=O)c1nn2c(nc1=O)sc1ccc3ccccc3c12 | > 69.2 µM | > 69.2 µM | –
Cc1c(O)c2ccccc2[nH]c1=O | > 200 µM | > 200 µM | –
Cn1c(=O)c2nc3n(c2n(C)c1=O)C(=O)C(C#N)N=N3 (centres undefined) | > 200 µM | > 200 µM | –
COc1ccc(-c2coc3c4c(c5c(c3c2=O)OC(C)(C)CC5)OC(C)(C)C=C4)cc1OC | > 39.8 µM | 12.3 µM | –
C#[N+]CCOP(=O)(OCC1OC(n2cc(C)c(=O)[nH]c2=O)CC1N=[N+]=[N-])O[C@H]1CC[C@@]2(C)C(=CC[C@H]3[C@@H]4CC[C@H](C(C)CCCC(C)C)[C@@]4(C)CC[C@@H]32)C1 (some centres undefined) | 4.17 µM and 10 µM | > 200 µM | –
CC1CC/C(=C\c2ccc(Cl)cc2)c2nc(N)c(C#N)c(-c3ccc(Cl)cc3)c21 (centres undefined) | > 200 µM | 155 µM | –
C#CCNC(=O)NC(CCCCNC(=O)OCc1ccccc1)C(=O)OCc1ccccc1 (centres undefined) | > 57.5 µM | 42.7 µM | –
C=Cc1cc[n+](CC(=O)c2ccc(-c3ccccc3)cc2)cc1 | > 200 µM | 45.7 µM | –
CC1=C(C(=O)N[C@@H](Cc2ccccc2)C(=O)O)N2C(=O)[C@@H](NC(=O)[C@@H](N)CC(C)C)[C@H]2SC1 | 174 µM | > 200 µM | –
CC(=O)NC1C(OCc2ccccc2)OC(CO)C(O)C1OC(C)C(=O)NC(C)C(=O)N[C@@H](CCC(=O)OCCCNC1c2ccccc2Nc2cccc([N+](=O)[O-])c21)C(N)=O (some centres undefined) | – | – | inactive
CC(=O)N=C1N(/C=C2\C(=O)Oc3ccccc3C2=O)C(=O)/C(=C/c2ccc(NC(C)=O)cc2)N1C | > 200 µM | > 200 µM | –
CC1(c2cccc3ccccc23)OC(=O)c2cccc(F)c21 (centres undefined) | > 36.3 µM | 5.89 µM | –
COc1ccc(-c2c(C(C)=O)c(C)n(C3OC(CO)C(O)C(O)C3O)c(=S)c2C#N)cc1 (centres undefined) | > 200 µM | 58.9 µM | –
CC(C)Cc1ccc(C(C)C(=O)O)cc1 (centres undefined) | > 1200 µM | 389 µM | –
Cc1cn(COCCSCc2ccccc2)c(=O)[nH]c1=O | 58.9 µM | > 200 µM | –
CC1(C)S[C@H](CN)N[C@H]1C(=O)OC(c1ccccc1)c1ccccc1 | > 200 µM | 60.3 µM | –

SMILES | EC50 | IC50 | outcome
Cc1nnc2sc(Cl)nn12 | > 200 µM | 6.17 µM | –
CC(C)(C)[Si](C)(C)OCC1OC(n2ccc(=O)[nH]c2=O)C(O[Si](C)(C)C(C)(C)C)[C@]12O[C@@H]2CO (some centres undefined) | > 200 µM | 13.2 µM | –
Cc1c(C)c2ccc3occc(=O)c3c2oc1=O | > 195 µM | 95.5 µM | –
O=C(Nc1ccc(C2=NCCN2)cc1)c1ccc(C(=O)Nc2ccc(C3=NCCN3)cc2)c([N+](=O)[O-])c1 | > 200 µM | 29.5 µM | –
NNC(=O)c1nnc(NN)[nH]c1=O | > 200 µM | > 200 µM | –
Nc1cc2cccc[n+]2c2cc(Cl)ccc12 | > 20 µM | 1.86 µM | –
CC1CCCc2c(CC3CC(=O)NC(=O)C3)nc(N)nc21 (centres undefined) | > 200 µM | > 200 µM | –
O=C(C(=NC12CC3CC(CC(C3)C1)C2)NNc1ccc([N+](=O)[O-])cc1[N+](=O)[O-])C(Br)C(=O)c1ccccc1 (centres undefined) | > 200 µM | 107 µM | –
COC(=O)/C(C=O)=C/Sc1ccccc1 | – | – | inactive
O=C1C=C/C(=C/[C@H]2SSC=C[C@]23C=CC(=O)C3)C1 | > 200 µM | 2.63 µM | –
O=C1CCCCC/C1=C\c1cccc(F)c1 | > 200 µM | > 100 µM | –
CNNC1=NS(=O)(=O)c2cc(C(=O)OC)c(Cl)cc2S1 | > 200 µM | > 200 µM | –
CC(=O)OCC1OC(SC2=NC(=O)/C(=C/c3ccccc3)S2)C(OC(C)=O)C(OC(C)=O)C1OC(C)=O (centres undefined) | > 200 µM | 32.4 µM | –
O=C1CN(C2CCCCC2)CC(=O)N2CCCCN12 | > 200 µM | > 200 µM | –
O=S(=O)(O)c1cc(N=Nc2ccc(O)cc2O)ccc1/C=C/c1ccc(N=Nc2ccc(O)cc2O)cc1S(=O)(=O)O | > 70.8 µM | 66.1 µM | –
CCC/C(Cl)=N\OC(=O)Nc1cccc(C(F)(F)F)c1 | > 200 µM | 6.76 µM | –
C[PH+](C)C.C[PH+](C)C.[C-]#[O+].[C-]#[O+].[C-]#[O+].[Fe] | > 200 µM | 49 µM | –
Nc1nc(Nc2ccc(Cl)c(Cl)c2)nc2nc[nH]c12 | > 200 µM | 20.9 µM | –
COC1/C=C/OC2(C)Oc3c(C)c(O)c4c(O)c(c(/C=N/N5C(C)CN(Cc6ccc(C(C)(C)C)cc6)CC5C)c(O)c4c3C2=O)NC(=O)/C(C)=C\C=C\C(C)C(O)C(C)C(O)C(C)C(OC(C)=O)C1C (centres undefined) | > 200 µM | 12.3 µM | –
O=C1C(=O)c2ccccc2C(O)=C1C(C1=C(O)c2ccccc2C(=O)C1=O)c1ccc(Cl)cc1Cl | > 200 µM | 16.2 µM | –

SMILES | EC50 | IC50 | outcome
Nc1ccc2cc(S(=O)(=O)O)c(N=Nc3ccc(-c4ccc(N=Nc5c(S(=O)(=O)O)cc6cc(S(=O)(=O)O)c(N=Nc7cccc([N+](=O)[O-])c7)c(N)c6c5O)cc4)cc3)c(O)c2c1 | – | – | active
CC(C)=CCNc1nc(Cl)nc2nc[nH]c12 | > 200 µM | 57.5 µM | –
CCOC(=O)CN1CCC2CC1c1c([nH]c3ccccc13)C21OCCO1 (centres undefined) | > 200 µM | > 200 µM | –
C=C(CCOC)CCC1CCCCC(=C)[C@H]1OC(C)=O (some centres undefined) | > 200 µM | 107 µM | –
COc1c(OC)c(C2(O)C(=O)N(C)c3ccccc32)c(OC)c(OC)c1C1(O)C(=O)N(C)c2ccccc21 (centres undefined) | > 200 µM | > 200 µM | –
Cl/C=C\C[N+]12CN3CN(CN(C3)C1)C2 | > 200 µM | 93.3 µM | –
O=C1C2=Nc3ccccc3C(O)N2c2ccccc21 (centres undefined) | > 200 µM | 69.2 µM | –
Nc1nc2c(ncn2CC2OCC(CO)O2)c(=O)[nH]1 (centres undefined) | > 2950 µM | 1820 µM and 275 µM | –
Cc1cc(N=Nc2ccc([N+](=O)[O-])cc2)c(NCC(O)C(O)C(O)CO)cc1C (centres undefined) | > 200 µM | 34.7 µM | –
CCCCCC(/C=C/[C@@H]1CC(=O)C[C@H]1O[Si](C)(C)C(C)(C)C)OCOCCOC (some centres undefined) | 5.75 µM | 7.59 µM | –
CCOc1ccc(NC(=O)/C(CC(=O)c2sc(Nc3ccc(C)cc3)nc2C)=N\NC(N)=S)cc1 | > 200 µM | > 200 µM | –
Cc1noc2c1NC(=O)OCC2 | 11 µM | 490 µM | –
COc1ccc(C2=NN(C(=O)COc3ccc(Cl)cc3)C(O)(c3ccc(Cl)cc3)C2)cc1 (centres undefined) | > 11 µM | > 11 µM | –
CC(=O)C1CC2(C(=O)C1=O)c1ccccc1-c1ccccc12 (centres undefined) | – | – | inactive
CC(=O)C1=C(C)N2C(=NC3=C(CCc4ccccc43)C2c2cccc(Br)c2)S1 (centres undefined) | > 200 µM | 81.3 µM | –
Cc1cc2ncc3c(=O)n(NS(=O)(=O)c4ccc(N)cc4)ccc3n2n1 | > 200 µM | > 200 µM | –
CC(=O)N1C(Nc2cccc3nc(C)ccc23)CCN1c1ccccc1 (centres undefined) | > 200 µM | 14.8 µM | –
COc1ccccc1C(=O)NO | > 200 µM | > 200 µM | –
O=c1nc(N2CCCC2)oc2cc3ccccc3cc12 | > 200 µM | 89.1 µM | –
